Measured values taken from ChEMBL document CHEMBL1759926, “Exploring new near-infrared fluorescent disulfide-based cyclic RGD peptide analogs for potential integrin-targeted optical imaging” (Bioorg Med Chem Lett, 2011).
pIC50: −log10 of the molar value. Bridge positions count the residues as written; N and C are the ends. Peptide text beside a SMILES is read from it. * marks the point of attachment. Cypate = CC1(C)C(/C=C/C=C/C=C/C=C2/N(CCC(=O)*)c3ccc4ccccc4c3C2(C)C)=[N+](CCC(=O)O)c2ccc3ccccc3c21

These compounds were tested on A549 (assay: Drug uptake in human A549 cells overexpressing […] integrin at 1 uM after 4 to 24 hrs by fluorescence microscopy). Conditions: a549, 1 µM; call rule not given here.
Format: ADME, cell-based

| Structure (SMILES) | Drug uptake |
| --- | --- |
| CC1(C)C(/C=C/C=C/C=C/C=C2/N(CCC(=O)N[C@H]3CSSC[C@@H](C(N)=O)NC(=O)[C@H](CC(=O)O)NC(=O)CNC(=O)[C@H](CCCNC(=N)N)NC3=O)c3ccc4ccccc4c3C2(C)C)=[N+](CCC(=O)O)c2ccc3ccccc3c21 | Active |
| CC1(C)C(/C=C/C=C/C=C/C=C2/N(CCC(=O)NCCCC[C@@H]3NC(=O)[C@@H](Cc4ccccc4)NC(=O)[C@H](CC(=O)O)NC(=O)CNC(=O)[C@H](CCCNC(=N)N)NC3=O)c3ccc4ccccc4c3C2(C)C)=[N+](CCC(=O)O)c2ccc3ccccc3c21 | Active |

Each compound was assayed against Integrin alpha-V/beta-3 (Homo sapiens, UniProt P05106+P06756) (assay: Displacement of [125I]echistatin from human integrin […] expressed in human A549 cells by binding assay). Conditions: not given.
Format: cell-based

Chain of Integrin alpha-V/beta-3 (P05106 27-788 limits assumed): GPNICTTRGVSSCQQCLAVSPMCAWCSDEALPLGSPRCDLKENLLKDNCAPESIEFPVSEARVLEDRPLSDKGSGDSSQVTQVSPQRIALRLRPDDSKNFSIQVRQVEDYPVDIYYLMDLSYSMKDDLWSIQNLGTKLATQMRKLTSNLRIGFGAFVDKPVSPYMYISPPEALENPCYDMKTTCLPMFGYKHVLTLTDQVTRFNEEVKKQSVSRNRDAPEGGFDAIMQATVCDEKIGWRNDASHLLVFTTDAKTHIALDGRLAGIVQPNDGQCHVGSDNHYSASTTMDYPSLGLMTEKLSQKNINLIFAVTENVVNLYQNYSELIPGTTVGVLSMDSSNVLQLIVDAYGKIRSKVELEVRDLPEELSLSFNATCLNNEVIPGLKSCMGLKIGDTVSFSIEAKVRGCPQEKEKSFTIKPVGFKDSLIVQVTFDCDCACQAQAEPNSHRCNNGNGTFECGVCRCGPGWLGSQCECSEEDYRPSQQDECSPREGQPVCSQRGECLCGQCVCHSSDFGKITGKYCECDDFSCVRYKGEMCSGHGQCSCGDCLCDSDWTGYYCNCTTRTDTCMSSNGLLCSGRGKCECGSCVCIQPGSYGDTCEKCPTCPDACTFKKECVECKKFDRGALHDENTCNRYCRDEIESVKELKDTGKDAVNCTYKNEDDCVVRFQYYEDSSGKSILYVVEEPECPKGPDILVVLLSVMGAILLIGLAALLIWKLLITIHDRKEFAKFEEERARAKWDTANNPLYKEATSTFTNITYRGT
Chain of Integrin alpha-V/beta-3 (P06756 31-889 limits assumed): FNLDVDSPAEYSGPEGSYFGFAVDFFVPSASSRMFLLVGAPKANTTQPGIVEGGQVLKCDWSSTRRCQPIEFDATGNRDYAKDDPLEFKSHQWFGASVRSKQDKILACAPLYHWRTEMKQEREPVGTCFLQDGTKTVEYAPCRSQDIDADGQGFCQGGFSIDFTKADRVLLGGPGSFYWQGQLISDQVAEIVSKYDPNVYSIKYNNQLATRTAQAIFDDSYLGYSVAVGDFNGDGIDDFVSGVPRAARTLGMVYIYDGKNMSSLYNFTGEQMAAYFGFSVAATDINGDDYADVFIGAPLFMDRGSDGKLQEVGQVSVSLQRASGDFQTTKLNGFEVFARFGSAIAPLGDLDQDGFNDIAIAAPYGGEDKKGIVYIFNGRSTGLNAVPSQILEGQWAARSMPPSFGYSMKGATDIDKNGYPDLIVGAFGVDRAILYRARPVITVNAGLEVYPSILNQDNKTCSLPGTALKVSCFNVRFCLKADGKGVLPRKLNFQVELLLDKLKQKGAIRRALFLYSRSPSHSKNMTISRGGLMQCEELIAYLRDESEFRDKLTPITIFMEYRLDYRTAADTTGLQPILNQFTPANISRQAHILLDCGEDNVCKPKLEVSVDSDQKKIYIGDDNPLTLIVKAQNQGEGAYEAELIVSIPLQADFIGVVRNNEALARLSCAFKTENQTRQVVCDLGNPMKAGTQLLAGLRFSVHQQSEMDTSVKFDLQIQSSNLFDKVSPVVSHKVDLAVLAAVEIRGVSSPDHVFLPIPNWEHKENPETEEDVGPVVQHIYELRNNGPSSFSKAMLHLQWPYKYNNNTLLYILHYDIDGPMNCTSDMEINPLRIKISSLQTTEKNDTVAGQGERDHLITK
Chain of Integrin alpha-V/beta-3 (P06756 891-1048 limits assumed): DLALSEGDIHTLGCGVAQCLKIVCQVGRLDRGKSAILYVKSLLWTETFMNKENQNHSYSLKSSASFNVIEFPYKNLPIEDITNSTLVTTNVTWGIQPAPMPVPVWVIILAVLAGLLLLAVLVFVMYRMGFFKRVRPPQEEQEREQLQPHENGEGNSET

| pIC50 | Structure (SMILES) |
| --- | --- |
| < 5.00 | CC(C)[C@@H]1NC(=O)[C@H](CCCNC(=N)N)NC(=O)[C@@H](NC(=O)CCN2/C(=C/C=C/C=C/C=C/C3=[N+](CCC(=O)O)c4ccc5ccccc5c4C3(C)C)C(C)(C)c3c2ccc2ccccc32)CSSC[C@@H](C(N)=O)NC(=O)[C@H](CC(=O)O)NC1=O (Cypate-CRVDC-NH2; disulfide 1-5) |
| < 5.00 | CC1(C)C(/C=C/C=C/C=C/C=C2/N(CCC(=O)N[C@H]3CSSC[C@@H](C(N)=O)NC(=O)[C@H](CC(=O)O)NC(=O)[C@H](Cc4ccc(O)cc4)NC(=O)[C@H](CCCNC(=N)N)NC3=O)c3ccc4ccccc4c3C2(C)C)=[N+](CCC(=O)O)c2ccc3ccccc3c21 (Cypate-CRYDC-NH2; disulfide 1-5) |

Second part, the compound before the results:

| Structure (SMILES) | pIC50 |
| --- | --- |
| CC1(C)C(/C=C/C=C/C=C/C=C2/N(CCC(=O)NCCCC[C@@H]3NC(=O)[C@@H](Cc4ccccc4)NC(=O)[C@H](CC(=O)O)NC(=O)CNC(=O)[C@H](CCCNC(=N)N)NC3=O)c3ccc4ccccc4c3C2(C)C)=[N+](CCC(=O)O)c2ccc3ccccc3c21 | 6.14 |
| CC1(C)C(/C=C/C=C/C=C/C=C2/N(CCC(=O)N[C@H]3CSSC[C@@H](C(N)=O)NC(=O)[C@H](CC(=O)O)NC(=O)[C@@H]4CCCN4C(=O)[C@H](CCCNC(=N)N)NC3=O)c3ccc4ccccc4c3C2(C)C)=[N+](CCC(=O)O)c2ccc3ccccc3c21 (Cypate-CRPDC-NH2; disulfide 1-5) | < 5.00 |
